Activity calls are given as the source filed them. The calls are words filed in the database; no cut-off is given here.
How the values were obtained:
[1] = organism: Sus scrofa; assay: Induction of porcine brain tubulin polymerization at 3 uM by fluorescence-based tubulin polymerization assay
[2] = Selectivity index, ratio of IC50 for cytotoxicity against human MRC5 cells to IC50 for cytotoxicity against human MCF7 cells; details: MRC5 cells versus MCF7 cells
[3] = Cytotoxicity against human MRC5 cells assessed as inhibition in cell growth incubated for 72 hrs by MTT assay; format: toxicity, cell-based
[4] = Selectivity index, ratio of IC50 for cytotoxicity against human MRC5 cells to IC50 for cytotoxicity against human HT-29 cells; details: MRC5 cells versus HT-29 cells
[5] = Selectivity index, ratio of IC50 for cytotoxicity against human MRC5 cells to IC50 for cytotoxicity against human A2780 cells; details: MRC5 cells versus A2780 cells
[6] = test system: HT-29; assay: Cytotoxicity against human HT-29 cells assessed as inhibition in cell growth incubated for 72 hrs by MTT assay; format: functional, cell-based; details: HT-29, 72 h
[7] = test system: A2780; assay: Cytotoxicity against human A2780 cells assessed as inhibition in cell growth incubated for 72 hrs by MTT assay; format: functional, cell-based; details: A2780, 72 h
[8] = test system: MCF7; assay: Cytotoxicity against human MCF7 cells assessed as inhibition in cell growth incubated for 72 hrs by MTT assay; format: functional, cell-based; details: MCF7, 72 h
[9] = test system: THP-1; assay: Cytotoxicity against human THP-1 cells assessed as inhibition in cell growth; format: functional, cell-based
[10] = test system: Rattus norvegicus; assay: Antiinflammatory activity against carrageenan-induced paw edema Sprague-Dawley rat model assessed as inhibition of inflammation at 50 mg/kg, po after 5 hrs relative to control; format: functional; parameters: scale not given: the % may be the effect or the level left
[11] = biological target: T1, Prostaglandin G/H synthase 1 (Ovis aries, UniProt P05979); assay: Inhibition of ovine COX-1
T1 sequence (P05979 whole entry): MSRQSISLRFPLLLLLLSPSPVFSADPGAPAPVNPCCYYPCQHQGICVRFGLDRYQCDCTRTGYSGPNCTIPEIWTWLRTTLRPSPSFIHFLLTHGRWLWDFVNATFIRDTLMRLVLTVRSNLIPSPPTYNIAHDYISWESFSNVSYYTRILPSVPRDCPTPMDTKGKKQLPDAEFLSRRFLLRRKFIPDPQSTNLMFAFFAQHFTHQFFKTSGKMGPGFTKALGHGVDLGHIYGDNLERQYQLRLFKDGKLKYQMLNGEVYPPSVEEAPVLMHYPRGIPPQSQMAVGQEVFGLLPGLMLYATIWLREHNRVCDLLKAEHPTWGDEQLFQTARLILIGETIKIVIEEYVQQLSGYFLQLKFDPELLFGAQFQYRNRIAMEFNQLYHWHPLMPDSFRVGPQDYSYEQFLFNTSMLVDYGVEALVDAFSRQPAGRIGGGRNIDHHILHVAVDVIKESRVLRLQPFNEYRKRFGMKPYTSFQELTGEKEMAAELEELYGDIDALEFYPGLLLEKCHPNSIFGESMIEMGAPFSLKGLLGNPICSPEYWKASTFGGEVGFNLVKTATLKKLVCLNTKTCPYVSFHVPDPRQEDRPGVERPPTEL

[12] = test system: Rattus norvegicus; assay: Antiinflammatory activity against carrageenan-induced paw edema Sprague-Dawley rat model assessed as inhibition of paw edema by measuring edema thickness at 50 mg/kg, po measured after 5 hrs (reference value: 1.39 +/- 0.11 mm); format: functional
[13] = test system: Rattus norvegicus; assay: Antiinflammatory activity against carrageenan-induced paw edema Sprague-Dawley rat model assessed as inhibition of inflammation at 50 mg/kg, po after 3 hrs relative to control; format: functional; parameters: scale not given: the % may be the effect or the level left
[14] = test system: Rattus norvegicus; assay: Antiinflammatory activity against carrageenan-induced paw edema Sprague-Dawley rat model assessed as inhibition of inflammation at 50 mg/kg, po after 1 hr relative to control; format: functional; parameters: scale not given: the % may be the effect or the level left
[15] = test system: Rattus norvegicus; assay: Antiinflammatory activity against carrageenan-induced paw edema Sprague-Dawley rat model assessed as inhibition of paw edema by measuring edema thickness at 50 mg/kg, po measured after 1 hr (reference value: 0.71 +/- 0.03 mm); format: functional
[16] = test system: Rattus norvegicus; assay: Antiinflammatory activity against carrageenan-induced paw edema Sprague-Dawley rat model assessed as inhibition of paw edema by measuring edema thickness at 50 mg/kg, po measured after 3 hrs (reference value: 1.41 +/- 0.13 mm); format: functional
[17] = test system: HCT-116; assay: Cytotoxicity against human HCT-116 cells assessed as inhibition in cell growth; format: functional, cell-based
[18] = test system: MCF7; assay: Cytotoxicity against human MCF7 cells assessed as inhibition in cell growth; format: functional, cell-based
[19] = test system: HepG2; assay: Cytotoxicity against human HepG2 cells assessed as inhibition in cell growth; format: functional, cell-based
[20] = test system: PC-3; assay: Cytotoxicity against human PC-3 cells assessed as inhibition in cell growth; format: functional, cell-based

SMILES | selectivity ratio at 72 h [2] | IC50 at 72 h [3] | selectivity ratio at 72 h [4] | selectivity ratio at 72 h [5] | IC50 [6] | IC50 [7] | IC50 [8] | also measured
CC(=O)O[C@H]1C(=O)[C@@]2(C)[C@H]([C@H](OC(=O)c3ccccc3)[C@]3(O)C[C@H](OC(=O)[C@H](O)[C@@H](NC(=O)c4ccccc4)c4ccccc4)C(C)=C1C3(C)C)[C@]1(OC(C)=O)CO[C@@H]1C[C@@H]2O |  |  |  |  |  |  |  | Activity [1]: Active
COc1ccc(NC(=O)COc2ccc(N3C(=O)CSC3c3ccccc3)cc2)cc1OC (stereo not given) | 4.19 | 7370 nM | 3.43 | 5.76 | 2150 nM | 1280 nM | 1760 nM | 
COc1ccc(N2C(=O)CSC2c2cc(OC)c(OC)c(OC)c2)cc1 (stereo not given) |  |  |  |  |  |  |  | IC50 [9]: 1210 nM
O=C(COc1ccc(N2C(=O)CSC2c2ccccc2)cc1)Nc1ccccc1 (stereo not given) | 1.54 | 3690 nM | 0.77 | 0.52 | 4810 nM | 7070 nM | 2390 nM | 
O=C(COc1ccc(N2C(=O)CSC2c2ccc(Cl)cc2)cc1)Nc1ccccc1 (stereo not given) | 1.13 | 1480 nM | 3.36 | 0.57 | 440 nM | 2600 nM | 1310 nM | 
COc1cc2c(c(OC)c1OC)-c1ccc(OC)c(=O)cc1[C@@H](NC(C)=O)CC2 [COLCHICINE] |  |  |  |  | 5190 nM | 23 nM |  | 
COc1cccc2c1C(=O)c1c(O)c3c(c(O)c1C2=O)C[C@@](O)(C(=O)CO)C[C@@H]3O[C@H]1C[C@H](N)[C@H](O)[C@H](C)O1 [DOXORUBICIN] |  | 2500 nM |  |  | 1500 nM | 5120 nM |  | 
O=C(COc1ccc(N2C(=O)CSC2c2ccccc2)cc1)Nc1ccc(F)cc1 (stereo not given) | 4.89 | 13500 nM | 2.62 | 2.53 | 5130 nM | 5320 nM | 2750 nM | 
COc1ccc(NC(=O)COc2ccc(N3C(=O)CSC3c3ccc(C)cc3)cc2)cc1 (stereo not given) | 1.17 | 2890 nM | 0.54 | 0.61 | 5340 nM | 4700 nM | 2470 nM | Activity [10]: 47.48%; IC50 [11]: 8370 nM; Activity [12]: 0.73 mm; Activity [13]: 32.7%; Activity [14]: 15.3%; Activity [15]: 0.61 mm; Activity [16]: 0.79 mm
Cc1ccc(NC(=O)COc2ccc(N3C(=O)CSC3c3ccc(C)cc3)cc2)cc1 (stereo not given) | 2.34 | 3110 nM | 4.44 | 1.1 | 700 nM | 2820 nM | 1330 nM | 
Cc1ccc(C2SCC(=O)N2c2ccc(OCC(=O)Nc3ccccc3)cc2)cc1 (stereo not given) | 0.77 | 890 nM | 0.79 | 0.32 | 1130 nM | 2810 nM | 1150 nM | 
O=C(COc1ccc(N2C(=O)CSC2c2ccc(Cl)cc2)cc1)Nc1ccc(F)cc1 (stereo not given) | 5.97 | 8720 nM | 13.6 | 0.79 | 640 nM | 11000 nM | 1460 nM | 
CC(=O)c1ccc(NC(=O)COc2ccc(C3SCC(=O)N3c3ccccc3)cc2)cc1 (stereo not given) |  |  |  |  |  |  |  | IC50 [17]: 18200 nM; IC50 [18]: 18200 nM; IC50 [19]: 18200 nM; IC50 [20]: 18200 nM
Cc1ccc(NC(=O)COc2ccc(N3C(=O)CSC3c3ccc(Cl)cc3)cc2)cc1 (stereo not given) | 1.53 | 3180 nM | 3.57 | 1.94 | 890 nM | 1640 nM | 2080 nM | 
COc1cc(NC(=O)COc2ccc(N3C(=O)CSC3c3ccccc3)cc2)cc(OC)c1OC (stereo not given) | 4.13 | 9380 nM | 2.92 | 4.69 | 3210 nM | 2000 nM | 2270 nM | 
COc1ccc(NC(=O)COc2ccc(N3C(=O)CSC3c3ccc(Cl)cc3)cc2)cc1 (stereo not given) | 0.81 | 1000 nM | 1.28 | 0.78 | 780 nM | 1280 nM | 1240 nM | 
O=C(COc1ccc(N2C(=O)CSC2c2ccccc2)cc1)Nc1ccc(Cl)cc1 (stereo not given) | 1.79 | 10600 nM | 3.02 | 0.63 | 3530 nM | 17000 nM | 5960 nM | Activity [10]: 47.48%; IC50 [11]: 36500 nM; Activity [12]: 0.53 mm; Activity [13]: 32.7%; Activity [14]: 15.3%; Activity [15]: 0.54 mm; Activity [16]: 0.63 mm
O=C(COc1ccc(N2C(=O)CSC2c2ccc(Cl)cc2)cc1)Nc1ccc(Cl)cc1 (stereo not given) | 2.83 | 6600 nM | 5 | 0.84 | 1320 nM | 7840 nM | 2330 nM | 
Cc1ccc(NC(=O)COc2ccc(N3C(=O)CSC3c3ccccc3)cc2)cc1 (stereo not given) | 1.59 | 2850 nM | 1.35 | 1.75 | 2110 nM | 1630 nM | 1790 nM | Activity [10]: 47.48%; IC50 [11]: 4550 nM; Activity [12]: 0.69 mm; Activity [13]: 32.7%; Activity [14]: 15.3%; Activity [15]: 0.57 mm; Activity [16]: 0.67 mm

— ChEMBL document CHEMBL5625227, “Discovery and optimization of 2,3-diaryl-1,3-thiazolidin-4-one-based derivatives as potent and selective cytotoxic agents with anti-inflammatory activity” (Eur J Med Chem, 2023)
